From ChEMBL document CHEMBL5241135, “Activity of N-phenylbenzamide analogs against the neglected disease pathogen, Schistosoma mansoni” (Bioorg Med Chem Lett, 2023)
Active and inactive are the calls of the source. The calls are words filed in the database; no cut-off is given here.

Key:
Schistosoma mansoni [1] = test: Antischistosomal activity against adult stage of Schistosoma mansoni assessed as uncoordinated and slowed motility at 5 uM measured after 1 hr; assay type: functional, organism-based
Schistosoma mansoni [2] = test: Antischistosomal activity against adult stage of Schistosoma mansoni assessed as uncoordinated and slowed motility at 5 uM measured after 5 hrs; assay type: functional, organism-based
Schistosoma mansoni [3] = test: Antischistosomal activity against adult stage of Schistosoma mansoni assessed as uncoordinated and slowed motility at 5 uM measured after 24 hrs; assay type: functional, organism-based
Schistosoma mansoni [4] = test: Antischistosomal activity against adult stage of Schistosoma mansoni assessed as uncoordinated and slowed motility at 5 uM measured after 48 hrs; assay type: functional, organism-based
HEK293 = test: Cytotoxicity against human HEK293 cells measured after 48 hrs; assay type: toxicity, cell-based; conditions: hek293, 48 h
Schistosoma mansoni [5] = test: Antischistosomal activity against adult stage of Schistosoma mansoni assessed as degenerative and lethal changes at 5 uM measured after 1 hr; assay type: functional, organism-based
Schistosoma mansoni [6] = test: Antischistosomal activity against adult stage of Schistosoma mansoni assessed as degenerative and lethal changes at 5 uM measured after 5 hrs; assay type: functional, organism-based
Schistosoma mansoni [7] = test: Antischistosomal activity against adult stage of Schistosoma mansoni assessed as degenerative and lethal changes at 5 uM measured after 24 hrs; assay type: functional, organism-based
Schistosoma mansoni [8] = test: Antischistosomal activity against adult stage of Schistosoma mansoni assessed as degenerative and lethal changes at 5 uM measured after 48 hrs; assay type: functional, organism-based
Schistosoma mansoni [9] = test: Antischistosomal activity against adult stage of Schistosoma mansoni assessed as reduction in worm motility measured after 24 hrs; assay type: functional, organism-based
[10] = Selectivity index, ratio of CC50 for human HEK293 cells to EC50 for antischistosomal activity against adult stage of Schistosoma mansoni; assay type: toxicity; conditions: read-out: Ratio CC50/EC50

EC50 (Schistosoma mansoni [9]) | Structure (SMILES) | Activity (Schistosoma mansoni [1]) | Activity (Schistosoma mansoni [2]) | Activity (Schistosoma mansoni [3]) | Activity (Schistosoma mansoni [4]) | CC50 (HEK293) | Activity (Schistosoma mansoni [5]) | Activity (Schistosoma mansoni [6]) | Activity (Schistosoma mansoni [7]) | Activity (Schistosoma mansoni [8]) | selectivity ratio [10]
 | O=C(Nc1ccc(Cl)c(Cl)c1)c1ccccc1 | Active | Active | Active | Active | > 20 µM |  |  |  |  | 
0.08 µM | O=C(Nc1ccc(Cl)c(Cl)c1)c1ccc(C(F)(F)F)cc1 |  |  |  |  |  | Active | Active | Active | Active | 123
 | COc1ccc(NC(=O)c2ccc(C(F)(F)F)cc2)cc1OC | inactive | inactive | inactive | inactive | > 20 µM | inactive | inactive | inactive | inactive | 
 | O=C(Nc1ccc(F)c(F)c1)c1ccccc1 | inactive | inactive | inactive | inactive | > 20 µM | inactive | inactive | inactive | inactive | 
1.1 µM | O=C(Nc1cccc(C(F)(F)F)c1)c1ccc(C(F)(F)F)cc1 |  |  |  |  |  | Active | Active | Active | Active | 10.1
 | N#Cc1ccc(C(=O)Nc2ccc(F)c(F)c2)cc1 | inactive | inactive | inactive | inactive | > 20 µM | inactive | inactive | inactive | inactive | 
 | COc1ccc(NC(=O)c2ccc(C#N)cc2)cc1OC | inactive | inactive | inactive | inactive | > 20 µM | inactive | inactive | inactive | inactive | 
 | O=C(Nc1cccc(C(F)(F)F)c1)c1ccccc1 |  |  | inactive | inactive | > 20 µM |  |  | inactive | inactive | 
 | O=C(Nc1ccc(Cl)c(Cl)c1)c1ccc(F)cc1 | Active | Active | Active | Active | > 20 µM |  |  |  |  | 
 | COc1ccc(NC(=O)c2cc(Cl)ccc2O)cc1OC | inactive |  |  |  | > 20 µM | inactive |  |  |  | 
3.8 µM | O=C(Nc1ccc(F)c(F)c1)c1ccc(C(F)(F)F)cc1 | Active | Active | Active |  | 14.6 µM |  |  |  | Active | 3.84
 | COc1ccc(NC(=O)c2ccccc2)cc1OC | inactive | inactive | inactive | inactive | > 20 µM | inactive | inactive | inactive | inactive | 
 | COc1ccc(NC(=O)c2ccc(F)cc2)cc1OC |  | inactive | inactive | inactive | > 20 µM |  | inactive | inactive | inactive | 
 | O=C(Nc1cccc(C(F)(F)F)c1)c1ccc(F)cc1 |  | inactive | inactive | inactive | > 20 µM |  | inactive | inactive | inactive | 
 | Cc1ccc(NC(=O)c2ccc(F)cc2)cc1C | inactive | inactive | inactive | inactive | > 20 µM | inactive | inactive | inactive | inactive | 
 | O=C(Nc1ccc(F)c(F)c1)c1ccc(F)cc1 |  |  | inactive | inactive | > 20 µM |  |  | inactive | inactive | 
 | N#Cc1ccc(C(=O)Nc2cccc(C(F)(F)F)c2)cc1 | inactive | inactive | inactive | inactive | > 20 µM | inactive | inactive | inactive | inactive | 
1.25 µM | O=C(Nc1ccc(C(F)(F)F)cc1)c1ccc(C(F)(F)F)cc1 |  |  | Active |  | > 20 µM |  |  |  | Active | > 16
 | O=C(Nc1ccccc1)c1ccc(C(F)(F)F)cc1 | inactive | inactive | inactive | inactive | > 20 µM | inactive | inactive | inactive | inactive | 
 | N#Cc1ccc(C(=O)Nc2ccccc2)cc1 | inactive | inactive | inactive | inactive | > 20 µM | inactive | inactive | inactive | inactive | 
 | O=C(Nc1ccc(Cl)nn1)c1cccc(F)c1 | inactive | inactive | inactive | inactive | > 20 µM | inactive | inactive | inactive | inactive | 
 | Cc1ccc(NC(=O)c2ccc(C#N)cc2)cc1C | inactive | inactive | inactive | inactive | > 20 µM | inactive | inactive | inactive | inactive | 
3.7 µM | Cc1ccc(NC(=O)c2ccc(C(F)(F)F)cc2)cc1C | Active | Active |  |  | > 20 µM |  |  | Active | Active | > 5.4
 | O=C(Nc1ccccc1)c1ccc(F)cc1 | inactive | inactive | inactive | inactive | > 20 µM | inactive | inactive | inactive | inactive | 
 | Cc1ccc(NC(=O)c2ccccc2)cc1C | inactive | inactive | inactive | inactive | > 20 µM | inactive | inactive | inactive | inactive | 
